# Reference: US20040241754A1, “Modulating neuronal plasticity” (The Salk Institute for Biological Studies, priority 2003, published 2004)
# Entries after “also recorded” stand apart in the source; their conditions may differ. Square brackets hold non-standard residues; d marks the D form. Ends that are not written are not given here. pS = N[C@@H](COP(=O)(O)O)C(=O)O
# T1: GRIP PDZ4-6 (Rattus norvegicus, UniProt P97879)
# T1 construct: corresponding to GRIP1 (amino acid 448-792); made in house; host or cells: E. coli BL21
# T1 sequence (P97879 448-792): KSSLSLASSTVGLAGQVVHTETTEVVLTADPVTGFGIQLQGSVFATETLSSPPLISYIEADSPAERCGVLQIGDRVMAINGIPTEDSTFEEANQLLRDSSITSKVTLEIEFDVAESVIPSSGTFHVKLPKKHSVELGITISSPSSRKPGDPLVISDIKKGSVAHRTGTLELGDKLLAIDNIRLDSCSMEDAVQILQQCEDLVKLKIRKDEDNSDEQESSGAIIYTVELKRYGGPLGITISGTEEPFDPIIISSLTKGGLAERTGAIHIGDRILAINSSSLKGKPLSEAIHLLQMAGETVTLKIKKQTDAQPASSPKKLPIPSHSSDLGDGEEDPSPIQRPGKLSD
# T2: His-GRIP(PDZ4-6) (rat, UniProt P97879 448-792)
# T2 construct: range 448-792; not shown: His tag and vector residues from pRSET
# T2 sequence (looked up): T1 sequence (P97879 448-792)
# T3: EphA8 (Mus musculus, UniProt O09127)
# T3 sequence (O09127 27-1004): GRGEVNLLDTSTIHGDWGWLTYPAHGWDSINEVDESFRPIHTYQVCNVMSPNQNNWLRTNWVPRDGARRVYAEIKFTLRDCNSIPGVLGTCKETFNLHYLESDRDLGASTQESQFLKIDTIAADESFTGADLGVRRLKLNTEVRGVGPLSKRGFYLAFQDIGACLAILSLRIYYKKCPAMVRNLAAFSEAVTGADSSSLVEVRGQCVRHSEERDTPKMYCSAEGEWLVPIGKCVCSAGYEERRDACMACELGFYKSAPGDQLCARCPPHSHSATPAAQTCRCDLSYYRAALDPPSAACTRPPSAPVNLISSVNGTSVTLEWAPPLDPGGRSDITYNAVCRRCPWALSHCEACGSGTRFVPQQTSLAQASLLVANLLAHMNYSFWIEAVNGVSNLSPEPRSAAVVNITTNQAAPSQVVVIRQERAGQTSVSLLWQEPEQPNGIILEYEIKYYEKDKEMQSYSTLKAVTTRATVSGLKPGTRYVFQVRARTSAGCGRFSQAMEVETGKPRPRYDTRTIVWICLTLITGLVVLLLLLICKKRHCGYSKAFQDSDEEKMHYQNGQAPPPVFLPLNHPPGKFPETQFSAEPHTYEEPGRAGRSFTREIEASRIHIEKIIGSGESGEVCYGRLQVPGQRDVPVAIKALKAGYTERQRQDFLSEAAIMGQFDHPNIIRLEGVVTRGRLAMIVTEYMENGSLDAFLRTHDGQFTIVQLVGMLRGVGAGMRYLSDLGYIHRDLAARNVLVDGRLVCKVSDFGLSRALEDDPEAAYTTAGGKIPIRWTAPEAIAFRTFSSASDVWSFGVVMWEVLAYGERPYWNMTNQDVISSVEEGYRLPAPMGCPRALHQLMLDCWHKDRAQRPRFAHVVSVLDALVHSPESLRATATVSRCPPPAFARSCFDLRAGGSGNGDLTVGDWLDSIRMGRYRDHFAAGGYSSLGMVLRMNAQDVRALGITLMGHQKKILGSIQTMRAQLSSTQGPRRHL
# B1: ephrin-A3: a 238 amino acid polypeptide; ephrin ligand (protein, UniProt P52797 1-238, looked up)
# chain: MAAAPLLLLLLLVPVPLLPLLAQGPGGALGNRHAVYWNSSNQHLRREGYTVQVNVNDYLDIYCPHYNSSGVGPGAGPGPGGGAEQYVLYMVSRNGYRTCNASQGFKRWECNRPHAPHSPIKFSEKFQRYSAFSLGYEFHAGHEYYYISTPTHNLHWKCLRMKVFVCCASTSHSGEKPVPTLPQFTMGPNVKINVLEDFEGENPQVPKLEKSISGTSPKREHLPLAVGIAFFLMTFLAS
# modifications: full-length
# notes: a 238 amino acid polypeptide; ephrin ligand
# B2: ephrin-A5: a 28 kDa, 228 amino acid glycoprotein; ephrin ligand (protein, UniProt P52803 1-228, looked up)
# chain: MLHVEMLTLVFLVLWMCVFSQDPGSKAVADRYAVYWNSSNPRFQRGDYHIDVCINDYLDVFCPHYEDSVPEDKTERYVLYMVNFDGYSACDHTSKGFKRWECNRPHSPNGPLKFSEKFQLFTPFSLGFEFRPGREYFYISSAIPDNGRRSCLKLKVFVRPTNSCMKTIGVHDRVFDVNDKVENSLEPADDTVHESAEPSRGENAAQTPRIPSRLLAILLFLLAMLLTL
# modifications: full-length
# notes: a 28 kDa, 228 amino acid glycoprotein; ephrin ligand
# B3: ephrin-B1-Fc fusion protein (Fc fusion, mouse, not shown: a dimerising Fc or GST)
# chain (part 1 of 2): ATPLAKNLEPVSWSSLNPKFLSGKGLVIYPKIGDKLDIICPRAEAGRPYEYYKLYLVRPEQAAACSTVLDPNVLVTCNKPHQEIRFTIKFQEFSPNYMGLEFKKYHDYYITSTSNGSLEGLENREGGVCRTRTMKIVMKVGQDPNAVTPEQLTTSRPSKESDNTVKTATQAPGRGSQGDSDGKHETVNQEEKSGPGAGGGGSGDSIEGRMD
# chain (part 2 of 2): HHHHH
# Tests used:
# [1] = test system: mossy fiber synapses of hippocampal CA3 pyramidal neurons; assay: Mossy fiber LTP, whole-cell patch clamp in hippocampal slices; format: cell-based, mice; details: for LTP (potentiation of the EPSC after tetanic stimulation): peptide 50 μM in patch electrode (postsynaptic), 25 to 30 minutes after tetanic stimulation; for LTP PPR (paired pulse ratio after LTP induction) / control PPR (paired pulse ratio before LTP induction): 40 ms interval
# Method: The role of the GluR2 subunit in LTP at mossy fiber terminals was evaluated in whole cell patch clamp experiments using hippocampal CA3 pyramidal neurons. Briefly, transverse hippocampal slices (350 μm) were made from P12-18 mice (strain 129SvEv) as previously described (Contractor et al., Neuron 29, 209-16. (2001)). Slices were transferred to a recording chamber, and whole-cell patch clamp recordings made from visually identified pyramidal cells in the CA3 region of the hippocampus. The recording electrode (i.e., patch electrode) is filled with an “internal” solution described below. A seal between the glass of the electrode and the membrane of the cell is made. The seal is then “broken through” by pushing the electrode through the membrane to gain low resistance access to the cell interior and enable voltage clamping of the cell membrane. This also allows dialysis of the cell with test reagents such as peptides and antibodies. A stimulating electrode is attached to a current source and allows current to stimulate action potentials while a reference electrode is placed in the recording bath. The composition of the internal solution was: 95 mM CsF, 25 mM CsCl, 10 mM Cs-HEPES, 10 mM Cs-EGTA, 2 mM NaCl, 2 mM Mg-ATP, 10 mM QX-314, 5 mM TEA-Cl, 5 mM 4-AP, pH adjusted to 7.3 with CsOH.
# Peptides were added directly to the internal solution on the day of the experiment from frozen stocks in protease inhibitors made up in phosphate buffered saline (PBS). To avoid leakage of peptides or antibodies into the extracellular space, pipette tips were filled with normal internal solution and then the pipette was backfilled with peptide/antibody containing internal fluid. The final concentration of peptides was 50 μM in all experiments. The final concentration of protease inhibitors were: bestatin 2 μg/ml, leupeptin 25 ng/ml, pepstatin 35 ng/ml, aprotinin 100 ng/ml.
# In control experiments where peptides were not included, internal solutions were made up in exactly the same way with protease inhibitors in PBS but lacking any added peptide. Antibodies were made up in PBS stock and added directly to the internal solution at a final concentration of 20 μg/ml. The pH and osmolarity of all internal solutions were checked before use. Series resistances (Rs) were generally <10M and were continuously monitored throughout the duration of the experiment. […] Experiments using mutant mice were performed with heterozygous breedings blind to the genotype of the animal.
# Mossy fiber EPSCs were evoked with a monopolar glass electrode positioned in the stratum lucidum. EPSCs were evaluated using a 40 ms interval between recordings. All recordings were made in the continuous presence of bicuculline (10 μM), picrotoxin (50 μM) and the NMDA receptor antagonist D-AP5 [D(-)-2-Amino-5-phosphonopentanoic acid; 50 μM]. The group II mGluR agonist, LCCG-1 (10 μM), which selectively depresses mossy fiber transmission, was applied at the end of each experiment. LTP was induced by tetanic stimulation comprising three 1 s stimulations (100 Hz) with a 10 s interval. Data are presented as mean±SEM. Parameters were compared using the Student's unpaired t-test where not specified, and the K-S test, p<0.05 was considered significant.
# Cumulative probability is determined by ranking the EPSC data set from the highest to the lowest value from 20 to 30 minutes post tetanization. Each point is graphed with its corresponding percentile. […] The lowest LTP value was about 40% signified by the lowest point on the 1 st graph (open circles) and the largest LTP was about 160%.
# [2] = target: T1, GRIP PDZ4-6; assay: Competitive binding of 35S-EphB2 to His-GRIP-PDZ4-6
# Method: A competitive binding assay was prepared to determine if the LTP inhibitory effects of the GluR2ct peptide were mediated through disruption of binding between Eph receptors and PDZ domain 6 of GRIP (Torres et al., Neuron 21, 1453-63. (1998)) as opposed to disruption of binding between the GluR2 subunit and the GluR2-binding PDZ 4 and 5 domains of GRIP (Dong et al., Nature 386, 279-84. (1997)). For this purpose, a binding assay was established between GRIP PDZ domain fragments (His-GRIP-PDZ4-6) and an EphB2 carboxy terminal fusion protein labeled with ^35S-methionine (^35S-EphB2).
# Briefly, the carboxy terminal region of EphB2 corresponding to mouse EphB2 receptor (amino acid 930-993) was generated by PCR from mouse brain library and subcloned into pGEX2TK (Pharmacia). The GRIP(PDZ4-6) construct, corresponding to GRIP1 (amino acid 448-792) was obtained by PCR from an adult rat hippocampal library and subcloned into pRSET vector. E coli (strain BL21) were transformed with His-GRIP(PDZ4-6) and GST-EphB2 and protein production induced with IPTG. GST-EphB2 protein was purified on glutathionine beads and ^35S-EphB2 cleaved from GST with thrombin (1 U/μg). GRIP(PDZ4-6) protein was purified on Ni-NTA agarose, and eluted with imadazole. ^35S-EphB2 (50 nM) was incubated with (15 μg) of His-GRIP(PDZ4-6) protein in PBS buffer with protease inhibitors for 2 hrs at 22° C. in the absence or presence of peptides. ^35S-EphB2 binding to His-GRIP(PDZ4-6) was determined after a 45 min incubation with Ni-NTA agarose and vacuum filtration onto Whatman GFB filter circles (pretreated with 3% BSA). Filters were washed with ice-cold PBS buffer, allowed to equilibrate overnight in ECOLUME scintillation cocktail (ICN pharmaceuticals, Irvine Calif.), and specific counts measured in a scintillation counter. Non-specific binding was defined as the residual binding measured in the absence of His-GRIP(PDZ4-6).
# [3] = test system: mossy fiber synapses of hippocampal CA3 pyramidal neurons; assay: Forskolin-mediated potentiation of mossy fiber EPSCs; format: cell-based, mice; details: EphB2 peptide in recording electrode
# [4] = target: T2, His-GRIP(PDZ4-6); assay: displacement of ^35S-EphB2 (50 nM) from His-GRIP-PDZ4-6, Hill fit
# [5] = target: T3, EphA8; details: read-out: Kd for binding to EphA8; cited from earlier work
# [6] = target: EphA3; details: read-out: Kd for binding to EphA3; cited from earlier work
# [7] = target: postsynaptic EphB receptors; assay: cell-based or functional assay
# [8] = peptide 50 μM in patch electrode
# [9] = peptide in patch electrode (postsynaptic)
# [10] = peptide in patch electrode, 20 to 30 minutes post tetanization
molecule,measurement,setting,value
"QMNQIQSVEV [EphB2 peptide, Gln-Met-Asn-Gln-Ile-Gln-Ser-Val-Glu-Val]",LTP (potentiation of the EPSC after tetanic stimulation),[1],125±15%
same,LTP PPR (paired pulse ratio after LTP induction),[1]; [8],2.5±0.27
same,control PPR (paired pulse ratio before LTP induction),[1]; [8],2.5±0.22
same,PTP (post-tetanic potentiation),"[1]; peptide 50 μM in patch electrode, immediately following tetanic stimulation",500±76%
same,effect on PTP,[1]; [9],significantly impaired; also recorded: significantly depressed
same,effect on tetanus induced LTP,[1]; [9],significantly impaired; also recorded: inhibit mossy fiber hippocampal CA3 neuronal LTP; also recorded: significantly depressed
same,"largest LTP of single recordings (cumulative probability, FIG. 5)",[1]; [10],about 160%
same,"lowest LTP value of single recordings (cumulative probability, FIG. 5)",[1]; [10],about 40%
same,Ki,"[2]; 35S-EphB2 50 nM, fitted to the Hill equation, read-out: Ki, displacement of 35S-EphB2 binding to His-GRIP-PDZ 4-6",43 nM
same,forskolin-mediated potentiation with peptide in the recording electrode,[3],209±20%
R2ctPO4: phosphorylated GluR2/3 peptide; same as SEQ ID NO: 1 except the serine is phosphorylated (NVYGIE[pS]VKI) [reference compound],LTP (potentiation of the EPSC after tetanic stimulation),[1],210±19%
same,LTP PPR (paired pulse ratio after LTP induction),[1]; [8],2.5±0.16
same,control PPR (paired pulse ratio before LTP induction),[1]; [8],3.0±0.18
same,effect on tetanus induced LTP,[1]; [9],little effect on induction of LTP
same,effect on tetanus induced LTP,"[1]; peptide in patch electrode (postsynaptic), listed as GluR2ctPO4",do not inhibit LTP
same,displacement of labeled EphB2 from GRIP PDZ4-6,"[2]; concentrations of up to 10 μM peptide, listed as GluR2ctPO4",unable to displace binding; also recorded: do not inhibit binding of EphB2 to GRIP
QMNQIQSVEV (also called EphB2 peptide) [EphB2 carboxy terminal peptide],Ki,[4],43 nM
B1,Kd,[5],1.1 nM
same,Kd,[6],5 nM
B2,Kd,[5],0.5 nM
B3,LTP after tetanus in the presence of ephrinB1-Fc (5 µg/ml),[7],139%
same,forskolin potentiation of mossy fiber EPSCs after pre-application of ephrin-B1-Fc,[7],219%
same,post-tetanic potentiation,[7],430%
